Measurements as given in ChEMBL document CHEMBL4312007, “First synthesis of merged hybrids phosphorylated azirino[2,1-b]benzo[e][1,3]oxazine derivatives as anticancer agents” (Eur J Med Chem, 2020).
pIC50: −log10 of the molar value.

Experiments:
[1] = test system: A549; assay: Antiproliferative activity against human A549 cells assessed as inhibition of cell growth incubated for 48 hrs by CCK8 assay; type: functional, cell-based; settings: A549, 48 h
[2] = test system: HEK293; assay: Antiproliferative activity against HEK293 cells assessed as inhibition of cell growth incubated for 48 hrs by CCK8 assay; type: functional, cell-based; settings: Homo sapiens, HEK293, 48 h
[3] = test system: MRC5; assay: Cytotoxicity against human MRC5 cells assessed as reduction in cell growth incubated for 48 hrs by CCK8 assay; type: cell-based; settings: MRC5, 48 h

Row | SMILES | pIC50 [1] | pIC50 [2] | pIC50 [3]
1 | CC(C)OP(=O)(OC(C)C)[C@@H]1N2[C@@H](O)c3ccccc3O[C@@]12C (relative stereo) | 5.52 | < 4.30 | < 4.30
2 | C[C@@]12Oc3ccc(F)cc3[C@H](O)N1[C@H]2P(=O)(c1ccccc1)c1ccccc1 (relative stereo) | 4.71 | < 4.30 | < 4.30
3 | CC[C@@]12Oc3ccccc3[C@](C)(O)N1[C@H]2P(=O)(c1ccccc1)c1ccccc1 (relative stereo) | 5.49 | < 4.30 | < 4.30
4 | COc1cccc2c1C(=O)c1c(O)c3c(c(O)c1C2=O)C[C@@](O)(C(=O)CO)C[C@@H]3O[C@H]1C[C@H](N)[C@H](O)[C@H](C)O1 [DOXORUBICIN] |  | 5.25 | < 4.30
5 | C[C@]1(O)c2ccccc2O[C@@]2(C)[C@H](P(=O)(c3ccccc3)c3ccccc3)N12 (relative stereo) | 4.68 | < 4.30 | < 4.30
6 | COc1cccc2c1O[C@@]1(C)[C@H](P(=O)(c3ccccc3)c3ccccc3)N1[C@H]2O (relative stereo) | 5.89 | < 4.30 | < 4.30
7 | C[C@@]12Oc3ccccc3[C@H](O)N1[C@H]2P(=O)(c1ccccc1)c1ccccc1 (relative stereo) | 5.57 | < 4.30 | < 4.30
8 | Cc1ccc2c(c1)[C@H](O)N1[C@@H](P(=O)(c3ccccc3)c3ccccc3)[C@]1(C)O2 (relative stereo) | 5.49 | < 4.30 | < 4.30
9 | CCOP(=O)(OCC)[C@@H]1N2[C@@H](O)c3ccccc3O[C@@]12C (relative stereo) | 4.80 |  | < 4.30
10 | CC[C@@]12Oc3ccccc3[C@H](O)N1[C@H]2P(=O)(c1ccccc1)c1ccccc1 (relative stereo) | 4.98 | < 4.30 | < 4.30
11 | CC[C@@]12Oc3c(OC)cccc3[C@H](O)N1[C@H]2P(=O)(c1ccccc1)c1ccccc1 (relative stereo) | 4.68 | < 4.30 | < 4.30
12 | CC[C@@]12Oc3ccc(C)cc3[C@H](O)N1[C@H]2P(=O)(c1ccccc1)c1ccccc1 (relative stereo) | 4.89 | < 4.30 | < 4.30
13 | CC(C)OP(=O)(OC(C)C)[C@@H]1N2[C@@](C)(O)c3ccccc3O[C@@]12C (relative stereo) | 4.99 | < 4.30 | < 4.30
